Data published in US20250186546A1, “Compositions and Methods to Prevent, Inhibit or Treat Autoimmune and Vascular Disease” (priority 2023, published 2025).

How the values were obtained:
[1] = tested on: Jurkat cells and mouse thymocytes; test: AC preparation for efferocytosis assays (Example 2); type: cell-based, human; conditions: 3 hours
Description: (§1) AC preparation and labeling for efferocytosis assays: Jurkat cells (about 10 μm, a human T cell line) and mouse thymocytes (about 5 μm, isolated from mouse thymi) are treated with staurosporine for 3 hours to induce apoptosis. The method routinely yields greater than 90% Annexin V+ ACs (Shi et al., 2022). GA treatment at 10 mM for 1-minute leads to an increase in cell rigidity (Sosale et al., 2015). Mouse RBC are isolated from whole blood freshly and opsonized by IgG (Sosale et al., 2015). Storage at 4° C. for one-week or treatment by GA increases rigidity (Sosale et al., 2015). Mouse RBC are freshly prepared because commercial RBCs are often stored in cold conditions for shipment and thus likely already have increased rigidity. Cells will be labeled by TAMRA (10 μg/mL, 25 minutes, Invitrogen #C1171) that labels both DNA and protein (Shi et al., 2022; Bi et al., 2022). To assess uptake and acidification, ACs are fluorescently labeled by TAMRA (pH-insensitive) and pHrodo (20 ng/mL, 30 minutes, ThermoFisher #P35373, pH-sensitive and only fluoresces in acidic environments) (Shi et al., 2022; Bi et al., 2022). RBC are labeled by PKH26 which labels membrane lipids (Sigma PKH26GL-1KT) (Shi et al., 2022). Cell debris is prepared by passing labeled ACs 10 times through 27G needles (Puigdellivol et al., 2021). […] The % of macrophages that engulfed cargo will be quantified by FACS (Shi et al., 2022).

[2] = tested on: Jurkat cells; test: Induction of apoptosis in Jurkat cells; type: cell-based, human; conditions: 5 μg/mL, 3 hours
Description: Apoptotic Jurkat cells were generated by treating Jurkat cells with 5 μg/mL staurosporine in RPMI-1640 medium for 3 hours at a density of 2.5×10^6 cells/mL at 37° C., 5% CO2. The method routinely yields greater than 90% Annexin V^+ apoptotic Jurkat cells. After washing in 1×DPBS, apoptotic Jurkat cells were resuspended at a concentration of 2×10^7 cells/mL in Diluent C with either PKH67 (green fluorescence) or PKH26 (red fluorescence) per the manufacturer's instruction. After labeling, the cells were rinsed twice with DMEM basal medium containing 10% HI-FBS and immediately used for efferocytosis assay. For labeling with other fluorescent probes, ACs were resuspended at a density of 2.5×10^6 cells/mL in DMEM basal media and incubated with 20 ng/mL pHrodo red (Life Technologies) and/or Hoechst 33342 solution (20 mM, 1:10,000 dilution, Thermo Scientific) for 30 minutes, or NuclearMask Blue Stain solution (1:2000 dilution, Invitrogen) for 30 minutes. TAMRA staining was applied to ACs at a concentration of 2×10^7 cells/mL in DMEMbasal medium at 10 μg/mL for 25 minutes.

[3] = tested on: BMDMs; test: Engulfment of ACs with increased rigidity by BMDMs; type: cell-based, mouse; conditions: GA 10 nM, 1 minute, control and Wdfy3 knockout BMDMs
Description: as §1, with “GA treatment at 10 mM for 1-minute leads to an increase in cell rigidity (Sosale et al., 2015).” left out

CN[C@@H]1C[C@H]2O[C@@](C)([C@@H]1OC)n1c3ccccc3c3c4c(c5c6ccccc6n2c5c31)C(=O)NC4 [staurosporine]
Annexin V+ ACs [1]: greater than 90% | Annexin V+ apoptotic Jurkat cells [2]: greater than 90%

O=CCCCC=O [Glutaraldehyde]
engulfment of GA-treated (rigid) ACs by BMDMs [3]: increased engulfment | engulfment of GA-treated (rigid) ACs by BMDMs ([3]; listed as GA): more effective engulfment
